From paper PMC11729428, “New Potent Inhibitor of Transforming Growth Factor-Beta (TGFβ) Signaling that is Efficacious against Microsatellite Stable Colorectal Cancer Metastasis in Combination with Immune Checkpoint Therapy in Mice” (ACS Pharmacology & Translational Science, 2024)

Tests used:
ALK5 = conditions: structure-activity relationship study of Li et al. ref 16; cited from earlier work
in vitro [1] = conditions: rat
Method: (§1) 5. Methods for In vitro characterizations of HYL001 […]
(§2) Rapid equilibrium dialysis was performed in triplicates with a rapid equilibrium dialysis (RED) by Sai Life Sciences Lt. (Telangana, India). The RED device contains a dialysis membrane with a molecular weight cut -off […]
(§3) of 8,000 Da, separating two chambers for plasma and buffer, respectively. […]
(§4) were added to the plasma chamber, versus phosphate buffer saline (pH 7.4) to the buffer chamber. Dialysis was performed for 4 h with 100 RPM shaking at 37 °C. […]
(§5) compounds in plasma were either frozen immediately (T0 sample), or incubated at 37 °C for 4 h without dialysis (non-dialysed), respectively.
(§6) Following dialysis, an aliquot was removed from either chamber and diluted with equal volume of opposite matrix to nullify the matrix effect. Similarly, buffer was added to recovery and stability samples. Next, acetonitrile (containing internal standard, glipizide) was added to the mixtures for protein precipitation and vortexed for 5 minutes. The samples were centrifuged at 4000 RPM at 4 °C for 10 min and the supernatant was submitted for liquid chromatography mass spectrometry (LC-MS/MS) analysis. Samples were monitored for parent compound using multiple reaction monitoring (MRM) mode.
(§7) The peak area ratios (PAR, analyte versus internal standard) in plasma vs bufffer were used to determine the fraction of compound bound to plasma proteins. The following equation was used to determine the extent of plasma protein binding: percent free drug = 100% x (PARbuffer / PARplasma); percent bound drug = 100 - % free drug. Recovery was calculated as 100% x (PARplasma + PARbuffer)dialysed / (PARplasma)non-dialysed; stability as 100% x (PAR)non-dialysed / (PARplasma)frozen at T0. […]

in vitro [2] = conditions: human
Method: as §1, §2, §3, §4, §5, §6, §7

in vitro [3] = conditions: mouse
Method: as §1, §2, §3, §4, §5, §6, §7

Structure (SMILES)	IC50 (ALK5)	recovery at 4 h, 5 µM (in vitro [1]; pH 7.4)	% Compound remaining at 4 hrs (in vitro [1]; plasma, 4 h, 5 µM)	recovery at 4 h, 5 µM (in vitro [2]; pH 7.4)	% Compound remaining at 4 hrs (in vitro [2]; plasma, 4 h, 5 µM)	recovery at 4 h, 5 µM (in vitro [3]; pH 7.4)	% Compound remaining at 4 hrs (in vitro [3]; plasma, 4 h, 5 µM)
Cc1cccc(-c2nn3c(c2-c2ccnc4ccc(Br)cc24)CCC3)n1 [6-Br, 6-Bromo-4-(2-(6-methylpyridin-2-yl)-5,6-dihydro-4H-pyrrolo[1,2-b]pyrazol-3-yl) Quinoline]	0.089 µM						
CC(=O)CC(c1ccccc1)c1c(O)c2ccccc2oc1=O (stereo not shown) [Warfarin, reference compound]		98.6%	104.8%	100%	84.2%	99.9%	106.2%
